The values below come from patent publication US6039950A, “Pharmaceutical grade saw palmetto” (priority 1997, dated 2000).

Molecules are shown by their SMILES. Like-named read-outs stand apart in the source and are kept apart here. Numbered stars: 1 amine (or outer) side, 2 acyl side, 3 side chain; on linkers, the order of the positions; unused ones are H or OH. Bridge positions count the residues as written; N and C are the ends. Square brackets hold non-standard residues; d marks the D form. Peptide text beside a SMILES is read from it. I, II: the chains in the order shown. Actinocin(9to1) = Cc1c2oc3c(C)ccc(C(=O)[*:1])c3nc-2c(C(=O)[*:2])c(N)c1=O; NMeV = CN[C@H](C(=O)O)C(C)C; Sar = CNCC(=O)O Some results are limits rather than exact numbers.

For data set [1] the following is noted: cited from earlier work; for time to degradation in oil preparations: exposed to light, "in as little as".
The next data set concerns the target T1, Cyclooxygenase-2 (Ovis aries, UniProt P79208).
T1 construct: Cyclooxygenase-2 (from sheep placenta); from tissue; host or cells: sheep placenta; assay by Panlabs
Kind of data set: biochemical. Type of data set: biochemical, sheep. The method, then: The reaction is initiated by addition of arachidonic acid (100 mM) and terminated after 20 minutes incubation at 37° C. by addition of TCA.

A further data set concerns the target T2, Cyclooxygenase-1 (Ovis aries, UniProt P05979).
T2 construct: Cyclooxygenase-1 (from ram seminal vesicles); from tissue; host or cells: ram seminal vesicles; assay by Panlabs
T2 sequence (P05979 25-600): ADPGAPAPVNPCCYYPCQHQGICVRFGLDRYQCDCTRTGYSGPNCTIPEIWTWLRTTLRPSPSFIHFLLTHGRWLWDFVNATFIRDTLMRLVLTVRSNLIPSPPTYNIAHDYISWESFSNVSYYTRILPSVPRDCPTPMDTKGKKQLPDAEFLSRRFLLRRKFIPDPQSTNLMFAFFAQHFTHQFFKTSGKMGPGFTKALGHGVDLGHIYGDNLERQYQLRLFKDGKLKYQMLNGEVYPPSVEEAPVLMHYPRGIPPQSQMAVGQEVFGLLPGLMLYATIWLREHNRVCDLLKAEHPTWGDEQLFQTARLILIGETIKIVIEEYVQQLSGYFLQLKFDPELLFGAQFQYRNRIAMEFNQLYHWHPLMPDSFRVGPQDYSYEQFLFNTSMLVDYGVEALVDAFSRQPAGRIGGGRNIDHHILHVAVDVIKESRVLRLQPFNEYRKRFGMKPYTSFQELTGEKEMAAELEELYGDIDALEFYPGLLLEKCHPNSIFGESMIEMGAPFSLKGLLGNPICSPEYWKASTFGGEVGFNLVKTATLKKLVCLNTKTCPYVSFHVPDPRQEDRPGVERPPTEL
Kind of data set: biochemical. Conditions: for Cox1 activity: screened at 3×10^-4 M. It is filed as biochemical, ram. Here is the method:
The reaction was initiated by addition of arachidonic acid (100 mM) and terminated after 20 minutes incubation at 37° C. by addition of trichloroacetic acid (TCA).

For the next data set, the target named is T3, 5-lipoxygenase (Rattus norvegicus, UniProt P12527).
T3 sequence (P12527 1-673): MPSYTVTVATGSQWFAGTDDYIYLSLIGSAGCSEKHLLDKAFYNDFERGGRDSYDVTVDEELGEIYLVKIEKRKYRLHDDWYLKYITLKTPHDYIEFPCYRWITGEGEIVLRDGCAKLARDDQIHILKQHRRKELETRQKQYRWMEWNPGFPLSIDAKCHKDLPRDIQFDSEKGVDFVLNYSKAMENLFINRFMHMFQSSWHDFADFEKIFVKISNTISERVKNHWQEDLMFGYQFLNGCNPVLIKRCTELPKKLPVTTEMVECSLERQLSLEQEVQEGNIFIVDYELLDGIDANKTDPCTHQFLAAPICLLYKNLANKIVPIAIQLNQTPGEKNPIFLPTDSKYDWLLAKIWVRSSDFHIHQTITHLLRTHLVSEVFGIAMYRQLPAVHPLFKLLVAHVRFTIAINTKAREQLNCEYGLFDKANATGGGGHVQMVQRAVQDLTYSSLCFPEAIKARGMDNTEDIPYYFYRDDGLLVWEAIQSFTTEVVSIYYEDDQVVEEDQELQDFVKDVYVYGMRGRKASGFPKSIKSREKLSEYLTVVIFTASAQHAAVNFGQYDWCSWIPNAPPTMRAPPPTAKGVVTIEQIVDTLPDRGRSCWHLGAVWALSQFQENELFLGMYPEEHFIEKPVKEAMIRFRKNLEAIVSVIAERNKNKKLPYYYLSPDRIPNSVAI
Kind of data set: biochemical. As to conditions: for 5-Lipo activity: screened at 3×10^-5 (30 μM).

Data set [2] deals with 5α-reductase. Conditions: cited from earlier work.
In data set [3] the test system is 5α-reductase. Conditions: rat, in vivo; cited from earlier work.
Another data set relates to Type 2 5α-reductase. As to conditions: cited from earlier work.
A further data set deals with 5α-reductase type 1. Conditions: Table 1; read-out: IC50 for DHT inhibition, epithelial cells (type 1); cited from earlier work.
Data set [4] deals with Type 1 5α-reductase. As to conditions: Table 2, cited from earlier work; for IC50: read-out: IC50 for DHT, Type 1 5α-reductase.
For data set [5], the system named is 5α-reductase. As to conditions: in vivo; cited from earlier work.
The target of the next data set is 5α-reductase type 2. Conditions: cited from earlier work.
The subject of data set [6] is Type 1 5α-reductase. As to conditions: cited from earlier work.
Another data set concerns smooth muscle. Conditions: cited from earlier work.
The mark [7] stands for this setting: Table 8, read-out: Cyclooxygenase-2 IC50 (Table 8).
The mark [8] stands for this setting: Table 1, read-out: IC50 for DHT inhibition, stroma (type 2).
[9] abbreviates: fibroblasts, read-out: IC50, inhibition of DHT formation in fibroblasts.
The mark [10] stands for this setting: Table 8, read-out: Cyclooxygenase-1 IC50 (Table 8).
Setting [11] is: Table 8, read-out: 5 Lipoxygenase IC50 (Table 8).
Setting [12] is: read-out: Testosterone affinity, Km.

T1 sequence (P79208 17-603): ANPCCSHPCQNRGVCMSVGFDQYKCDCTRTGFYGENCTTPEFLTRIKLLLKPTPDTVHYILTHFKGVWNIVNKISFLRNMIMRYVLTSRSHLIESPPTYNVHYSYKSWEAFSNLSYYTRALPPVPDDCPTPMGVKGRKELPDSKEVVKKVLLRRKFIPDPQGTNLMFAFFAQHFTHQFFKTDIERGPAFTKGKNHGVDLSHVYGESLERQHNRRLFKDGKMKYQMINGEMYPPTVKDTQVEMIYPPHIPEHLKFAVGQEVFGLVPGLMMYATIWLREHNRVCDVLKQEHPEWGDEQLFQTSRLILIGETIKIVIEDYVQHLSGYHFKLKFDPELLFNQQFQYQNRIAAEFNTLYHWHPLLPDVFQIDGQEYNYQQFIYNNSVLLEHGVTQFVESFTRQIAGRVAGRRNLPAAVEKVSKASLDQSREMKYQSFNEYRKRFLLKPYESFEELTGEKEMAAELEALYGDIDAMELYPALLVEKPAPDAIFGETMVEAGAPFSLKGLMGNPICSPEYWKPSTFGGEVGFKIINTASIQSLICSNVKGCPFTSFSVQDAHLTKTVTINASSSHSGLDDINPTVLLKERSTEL
Procedure for 5-lipoxygenase: The procedure was as follows. 5-lipoxygenase assays were run using a crude enzyme preparation from rat basophilic leukemia cells (RBL-1). Test compounds were pre-incubated with the enzyme for 5 minutes at room temperature and the reaction was initiated by addition of substrate (arachidonic acid). Following an 8 minute incubation at room temperature, the reaction was terminated by addition of citric acid, and levels of 5-HETE were determined by 5-HETE radioimmunoassay (RIA).
Compounds and fractions were screened at an initial concentration of 3×10^-5.

Regarding `CCC(C)C(=O)[C@]12C(=O)[C@](CC=C(C)C)(C[C@H](CC=C(C)C)[C@@]1(C)CCC=C(C)C)C(=O)C(CC=C(C)C)=C2O` (stereo partly shown) [adhyperforin], the “time to degradation in oil preparations” value in [1] is 14 days.

For `CCCCC/C=C\C/C=C\CCCCCCCC(=O)O` [Linoleic Acid], at Cyclooxygenase-2, the Cox2 activity entry is “Negative” and the concentration for half-maximal inhibition (IC50) was above 300 µM. Also, at Cyclooxygenase-1, the 50% inhibitory concentration (IC50) was above 300 µM and the Cox1 activity entry is given as “Negative”. Further, on 5-lipoxygenase, the concentration for half-maximal inhibition (IC50) is above 30 µM and the 5-Lipo activity result is reported as “Negative”. The 5α-reductase inhibitory activity entry with 5α-reductase [2] is on record as “particularly potent inhibitors”.

Take `Cc1cc(O)c2c(=O)c3c(O)cc(O)c4c5c(O)cc(O)c6c(=O)c7c(O)cc(C)c8c1c2c(c34)c(c78)c65` [hypericin]: the “hypericin content on storage” value in data set [1] (60-140 °C, more than six weeks, powdered extract, tablet and juice) is “drop significantly”.

`CC/C=C\C/C=C\C/C=C\CCCCCCCC(=O)O` [Linolenic Acid]: the Cox2 activity result on Cyclooxygenase-2 is “Negative”. Also, the IC50 at Cyclooxygenase-2 (setting [7]) was above 300 µM; against 5-lipoxygenase it was 12 µM. Further, the 5α-reductase inhibitory activity entry in the data set on 5α-reductase [2] is given as “particularly potent inhibitors”.

For `CC(C)=CCCC1(C)C(CC=C(C)C)CC2(CC=C(C)C)C(=O)C(CC=C(C)C)=C(O)C1(C(=O)C(C)C)C2=O` (stereo not shown) [hyperforin], the “time to degradation in oil preparations” value in data set [1] is recorded as 14 days.

Regarding `CC(C)(C)NC(=O)[C@H]1CC[C@H]2[C@@H]3CC[C@H]4NC(=O)C=C[C@]4(C)[C@H]3CC[C@]12C` [Finasteride], the “inhibition of 5α-reductase in castrated rats” value in the data set on 5α-reductase [3] is on record as “inhibits 5α-reductase”. The type of inhibition result in the data set with Type 2 5α-reductase was “(non)competitive”; in the data set with Type 1 5α-reductase [6], “competitive”. Besides, the IC50 on Type 2 5α-reductase (read-out: inhibition, IC50) was 10.7 nM; on 5α-reductase type 1, 400 nM; on Type 1 5α-reductase [4], 500 nM; on 5α-reductase type 2 (setting [8]) it was 30 nM; on 5α-reductase type 2 (setting [9]), 30 nM; on Type 1 5α-reductase [6] (read-out: inhibition, IC50) it was 400 nM. Besides, the inhibitory constant (Ki) is 7.3 nM on Type 2 5α-reductase (read-out: inhibition, Ki) and 108 nM on Type 1 5α-reductase [6] (read-out: inhibition, Ki). The Inhibition type entry in the data set with Type 1 5α-reductase [4] is reported as “Competitive”. Further, in the data set with 5α-reductase [5], the “decrease in serum DHT levels” value is recorded as “decrease in serum DHT levels”.

As for `CCCCCCCCCCCC(=O)OCC` [Ethyl laurate], on Cyclooxygenase-2, the Cox2 activity entry is “Negative”. Besides, the figures for the IC50 on Cyclooxygenase-2 (setting [7]), on Cyclooxygenase-1 (setting [10]) and at 5-lipoxygenase (setting [11]) were above 300 µM, above 300 µM and above 30 µM, respectively. For the same compound, the Cox1 activity entry at Cyclooxygenase-1 is “Negative”. For the same compound, the 5-Lipo activity entry on 5-lipoxygenase is on record as “Negative”. The 5α-reductase inhibitory activity entry in the data set with 5α-reductase [2] is given as “markedly less effective”.

With `CCN(CC)C(=O)[C@H]1CC[C@H]2[C@@H]3CC[C@H]4N(C)C(=O)CC[C@]4(C)[C@H]3CC[C@]12C` [4-MA], the IC50 at 5α-reductase type 1 is 20 nM; at Type 1 5α-reductase [4] it was 10 nM; on 5α-reductase type 2 (setting [8]) it was 50 nM; at 5α-reductase type 2 (setting [9]), 50 nM. In the data set on Type 1 5α-reductase [4], the Inhibition type result is reported as “Competitive”.

Regarding `C[C@]12CC[C@H]3[C@@H](CCC4=CC(=O)CC[C@@]43C)[C@@H]1CC[C@@H]2O` [testosterone], the entries for the “Testosterone, Vmax” value in the data set with Type 2 5α-reductase and in the data set with Type 1 5α-reductase [6] were 57.6 nmoles/10^6 cells/min and 4.2 nmoles/10^6 cells/min, respectively. For the same compound, the Km in the data set with Type 2 5α-reductase (setting [12]) is 500 nM; in the data set with Type 1 5α-reductase [6] (setting [12]), 2900 nM.

Regarding `Cc1c2oc3c(C)ccc(C(=O)N[C@@H]4C(=O)N[C@H](C(C)C)C(=O)N5CCC[C@H]5C(=O)N(C)CC(=O)N(C)[C@@H](C(C)C)C(=O)O[C@@H]4C)c3nc-2c(C(=O)N[C@@H]2C(=O)N[C@H](C(C)C)C(=O)N3CCC[C@H]3C(=O)N(C)CC(=O)N(C)[C@@H](C(C)C)C(=O)O[C@@H]2C)c(N)c1=O` [actinomycin D] (I: T[dV]P[Sar][NMeV] / II: T[dV]P[Sar][NMeV]; ester I:1-I:C, II:1-II:C; linker I:N-II:N via Actinocin(9to1)), the “effect on relaxant effect of Sabal extracts” value in the data set on smooth muscle is on record as “antagonized the effect of the total lipidic extract without modifying that of the saponifiable extract”.

For `CCCCCCCCCCCC(=O)O` [Lauric Acid], the Cox2 activity entry at Cyclooxygenase-2 is given as “Negative”. In addition, the IC50 on Cyclooxygenase-2 (setting [7]) was above 300 µM; at Cyclooxygenase-1 (setting [10]), above 300 µM; at 5-lipoxygenase (setting [11]), above 30 µM. In addition, the Cox1 activity result at Cyclooxygenase-1 was “Negative”. Further, the 5-Lipo activity entry on 5-lipoxygenase is on record as “Negative”. The 5α-reductase inhibitory activity result with 5α-reductase [2] is “particularly potent inhibitors”.

Take `CC(C)NC[C@@H](O)COc1cccc2ccccc12` [R-propranolol]: in the data set with smooth muscle, the “effect on relaxant effect of Sabal extracts” value was “inactive”.
